Experimental data taken from the supplement of paper PMC10307832.

How the values were obtained:
Assay in all cases: relative viability (nuclei count vs DMSO), 5 days (fraction); higher = more cells survive
[1] = test system: LCLC-97TM1
Outline: (§1)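 Relative viability was taken as the ratio of nuclei in treated wells to nuclei in vehicle wells. Lung cancer cell lines in 1536-well plates received compounds by pin tool one day after seeding, either one drug alone or a fixed anchor-drug dose plus five library-drug doses (not always all listed) in √10 steps. Nuclei were counted on 4× images after 5 days of treatment, and values are medians of duplicate plates.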

[2] = test system: HCC-15
Outline: as §1

[3] = test system: NCI-H1734
Outline: as §1

[4] = test system: ChaGo-K-1
Outline: as §1

[5] = test system: NCI-H2009
Outline: as §1

[6] = test system: NCI-H441
Outline: as §1

[7] = test system: NCI-H460
Outline: as §1

[8] = test system: COR-L23
Outline: as §1

[9] = test system: RERF-LC-KJ
Outline: as §1

[10] = test system: LOU-NH91
Outline: as §1

[11] = test system: NCI-H2023
Outline: as §1

[12] = test system: NCI-H2126
Outline: as §1

[13] = test system: 201T
Outline: as §1

[14] = test system: HCC-44
Outline: as §1

[15] = test system: NCI-H1993
Outline: as §1

[16] = test system: HCC-78
Outline: as §1

[17] = test system: A-427
Outline: as §1

[18] = test system: SW 1573
Outline: as §1

[19] = test system: HCC-366
Outline: as §1

[20] = test system: HARA
Outline: as §1

[21] = test system: NCI-H650
Outline: as §1

[22] = test system: NCI-H1650
Outline: as §1

[23] = test system: LCLC-103H
Outline: as §1

Cc1cnc(-c2cnc(NCCNc3ccc(C#N)cn3)nc2-c2ccc(Cl)cc2Cl)[nH]1 + Cc1cc(Nc2cc(N3CCN(C)CC3)nc(Sc3ccc(NC(=O)C4CC4)cc3)n2)n[nH]1 [Tozasertib] (partner 0.1 µM)
relative viability ([1]; first compound 0.08 µM): 0.224
relative viability ([1]; first compound 0.8 µM): 0.171
relative viability ([1]; first compound 2.53 µM): 0.223
relative viability ([2]; first compound 0.08 µM): 0.346
relative viability ([2]; first compound 0.253 µM): 0.373
relative viability ([2]; first compound 0.8 µM): 0.473
relative viability ([2]; first compound 2.53 µM): 0.279
relative viability ([3]; first compound 0.08 µM): 0.314
relative viability ([3]; first compound 0.253 µM): 0.253
relative viability ([3]; first compound 0.8 µM): 0.261
relative viability ([3]; first compound 2.53 µM): 0.247
relative viability ([4]; first compound 0.08 µM): 0.241
relative viability ([4]; first compound 0.253 µM): 0.215
relative viability ([4]; first compound 0.8 µM): 0.231
relative viability ([4]; first compound 2.53 µM): 0.22
relative viability ([5]; first compound 0.08 µM): 0.734
relative viability ([5]; first compound 0.253 µM): 0.695
relative viability ([5]; first compound 0.8 µM): 0.794
relative viability ([5]; first compound 2.53 µM): 0.452
relative viability ([6]; first compound 0.08 µM): 0.775
relative viability ([6]; first compound 0.253 µM): 0.654
relative viability ([6]; first compound 0.8 µM): 0.602
relative viability ([6]; first compound 2.53 µM): 0.405
relative viability ([7]; first compound 0.08 µM): 0.48
relative viability ([7]; first compound 0.253 µM): 0.152
relative viability ([7]; first compound 0.8 µM): 0.101
relative viability ([7]; first compound 2.53 µM): 0.137
relative viability ([8]; first compound 0.08 µM): 0.205
relative viability ([8]; first compound 0.253 µM): 0.181
relative viability ([8]; first compound 0.8 µM): 0.164
relative viability ([8]; first compound 2.53 µM): 0.109
relative viability ([9]; first compound 0.08 µM): 0.544
relative viability ([9]; first compound 0.253 µM): 0.436
relative viability ([9]; first compound 0.8 µM): 0.367
relative viability ([9]; first compound 2.53 µM): 0.382
relative viability ([10]; first compound 0.08 µM): 0.648
relative viability ([10]; first compound 0.253 µM): 0.605
relative viability ([10]; first compound 0.8 µM): 0.656
relative viability ([10]; first compound 2.53 µM): 0.633
relative viability ([11]; first compound 0.08 µM): 0.353
relative viability ([11]; first compound 0.253 µM): 0.362
relative viability ([11]; first compound 0.8 µM): 0.325
relative viability ([11]; first compound 2.53 µM): 0.181
relative viability ([12]; first compound 0.08 µM): 1.02
relative viability ([12]; first compound 0.253 µM): 0.802
relative viability ([12]; first compound 0.8 µM): 0.844
relative viability ([12]; first compound 2.53 µM): 0.837
relative viability ([13]; first compound 0.08 µM): 0.93
relative viability ([13]; first compound 0.8 µM): 0.904
relative viability ([13]; first compound 2.53 µM): 0.884
relative viability ([14]; first compound 0.08 µM): 1.04
relative viability ([14]; first compound 0.253 µM): 0.746
relative viability ([14]; first compound 0.8 µM): 0.676
relative viability ([14]; first compound 2.53 µM): 0.781
relative viability ([15]; first compound 0.08 µM): 0.583
relative viability ([15]; first compound 0.253 µM): 0.558
relative viability ([15]; first compound 0.8 µM): 0.573
relative viability ([15]; first compound 2.53 µM): 0.538
relative viability ([16]; first compound 0.08 µM): 0.482
relative viability ([16]; first compound 0.253 µM): 0.311
relative viability ([16]; first compound 0.8 µM): 0.428
relative viability ([16]; first compound 2.53 µM): 0.384
relative viability ([17]; first compound 0.08 µM): 0.232
relative viability ([17]; first compound 0.253 µM): 0.194
relative viability ([17]; first compound 0.8 µM): 0.235
relative viability ([17]; first compound 2.53 µM): 0.186
relative viability ([18]; first compound 0.08 µM): 0.177
relative viability ([18]; first compound 0.253 µM): 0.138
relative viability ([18]; first compound 0.8 µM): 0.302
relative viability ([18]; first compound 2.53 µM): 0.156
relative viability ([19]; first compound 0.08 µM): 0.0773
relative viability ([19]; first compound 0.253 µM): 0.0701
relative viability ([19]; first compound 0.8 µM): 0.071
relative viability ([19]; first compound 2.53 µM): 0.0493
relative viability ([20]; first compound 0.08 µM): 0.116
relative viability ([20]; first compound 0.253 µM): 0.113
relative viability ([20]; first compound 0.8 µM): 0.116
relative viability ([20]; first compound 2.53 µM): 0.1
relative viability ([21]; first compound 0.08 µM): 0.726
relative viability ([21]; first compound 0.253 µM): 0.746
relative viability ([21]; first compound 0.8 µM): 0.675
relative viability ([21]; first compound 2.53 µM): 0.734
relative viability ([22]; first compound 0.08 µM): 0.476
relative viability ([22]; first compound 0.253 µM): 0.43
relative viability ([22]; first compound 0.8 µM): 0.353
relative viability ([22]; first compound 2.53 µM): 0.229
relative viability ([23]; first compound 0.08 µM): 0.503
relative viability ([23]; first compound 0.253 µM): 0.417
relative viability ([23]; first compound 0.8 µM): 0.429
relative viability ([23]; first compound 2.53 µM): 0.426
